Experimental data from patent US20130345257A1, “COMPOSITION FOR LUPUS NEPHRITIS AND METHODS OF MAKING AND USING THE SAME” (The Regents of the University of California, priority 2012, published 2013).
Entries after “also recorded” stand apart in the source; their conditions may differ.

Columns and labels:
Type in all cases: in vivo, mouse
[1] = system: BWF1 mice with high proteinuria (PU^hi); assay: Therapeutic treatment of BWF1 mice after clinical nephritis / high proteinuria (PU^hi)
Protocol: Therapeutic Groups: a low proteinuria group)(PU^lo) consisted of mice with IgG anti-dsDNA detectable in serum and proteinuria ≦100 mg/dL, and a high proteinuria group (PU^hi) had proteinuria ≧300 mg/dL.
(§1) Proteinuria was evaluated weekly using Albustix (Siemens), serum creatinine using a commercial kit (Arbor Assays) and anti-dsDNA IgG antibodies by ELISA as described previously (10). See, e.g., FIGS. 1 and 2.
(§2) Kidney specimens of BWF1 mice (37 weeks of age in the prevention group or 7 and 11 weeks after institution of early or late therapies) were embedded in OCT compound and snap frozen. 4-5 μm an sections were air-dried, fixed with cold acetone and incubated with blocking buffer (anti-CD16/CD32 (1/50), 2% normal goat or rat serum, 2% BSA).
Histological analysis of glomerular pathology was done by an investigator blinded to treatment group and included acute inflammatory features (endocapillary hypercellularity, mesangial hypercellularity, cellular necrosis, cellular crescents, and interstitial inflammation), and chronic features (global glomerulosclerosis (GS), focal segmental glomerulosclerosis (FSGS), and interstitial fibrosis or tubular atrophy (IF/TA)). […] The weighted total score of the clinical features was based on this formula: [endocapillary hypercellularity+mesengial hypercellularity+(cellular necrosis*2)+(cellular crescents*2)+interstitial inflammation)/5]+(GS+FSGS+IFTA)/3, with maximum score 5.2. A minimum of 25 glomeruli, of at least 10 mice per group, were scored. Scores from each individual mouse were added and averaged to yield the glomerulonephritis score.

[2] = system: leukocyte subsets present in kidney; assay: Leukocyte subsets in kidney of treated BWF1 mice by flow cytometry; set-up: Frequency of cells ± SEM: CD11c^+CD11b− (DC) / Frequency of cells ± SEM: CD11b^+Ly6C^+Ly6G− / Frequency of cells ± SEM: CD11b^+Ly6C^+Ly6G+ / Frequency of cells ± SEM: CD4+ / Frequency of cells ± SEM: CD8+ / Frequency of cells ± SEM: CD11b^+MDSC−(Mφ) / Frequency of cells ± SEM: CD11c^+CD11b+(DC): unit not given here; conditions: kidney, LAQ 25 mg/kg, MMF 100 mg/kg; for Frequency of cells ± SEM: CD19+: in % (unit assumed)
Protocol: Single cell suspensions of splenocytes or kidney cells were prepared using cell strainers (Fisher), followed by red blood cell lysis. Kidney lymphocytes were separated from connective tissue by centrifugation (15 minutes at 400g) in 30% Percoll (GE Healthcare). CD4^+CD25^− cells from spleen and kidney were isolated using the CD4^+CD25^+ regulatory T cell isolation kit according to manufacturer's protocol (Miltenyi). CD11b+ cells were isolated using EasySep mouse CD11b positive selection kit (StemCell Technologies), surface stained for Ly6C and Ly6G prior to sorting myeloid-derived suppressor cells (MDSC) using FACSAria II. Populations were >95% pure by FACS analysis.
Single-cell suspensions from spleen or kidneys were stained for extracellular markers for 20 min at 4° C. in PBS/1% FBS. Intracellular staining for Foxp3 and cytokines was performed using the Foxp3 Fixation/Permeabilization kit according to the manufacturer's protocol (eBioscience). Cells were acquired on a FACS LSR II (BD) and data was analyzed using Flowjo (Tree Star).

[3] = system: lupus nephritis in BWF1 mice; assay: Preventive treatment of pre-nephritic BWF1 mice (survival, proteinuria, creatinine, anti-dsDNA, renal histology, IgG/C3 deposition)
Protocol: Clinical and immune cell changes were compared in groups of 10-12 BWF1 female mice in the following groups: • Group 1: Water orally 3 times a week for 24 weeks. • Group 2: Laquinimod 1 mg/kg orally 3 times a week for 24 weeks. • Group 3: Laquinimod 25 mg/kg orally 3 times a week for 24 weeks. • Group 4: Mycophenolate Mofetil 30 mg/kg orally […] for 24 weeks. • Group 5: Mycophenolate Mofetil 100 mg/kg orally […] for 24 weeks (“MMF 100”).
Preventive Group: 11-week old (pre-nephritic) BWF1 female mice were treated orally 3 times a week with a) water; b) laquinimod at 1 mg/kg (LAQ1, low dose) or c) 25 mg/kg (LAQ25, high dose) (Teva Pharmaceutical); or 5 times a week with d) mycophenolate mofetil at 30 mg/kg (MMF30, low dose) or e) 100 mg/kg (MMF100, high dose).
as §1, §2
Immunoglobulin G and C3 complement glomerular deposition were investigated by incubation of cryosections with fluoroscein isothiocyanate (FITC)-conjugated goat anti-mouse IgG (1:50) (Sigma) or rat anti-mouse C3 (1:800) (Solulink) in blocking buffer for 2 hours at room temperature. Images were acquired using Nikon Eclipse TE2000-U microscope and MetaMorph 6.3 software (Sunnyvale, Calif.). Quantification of the area immunostained in tissue sections was made using the computer image analysis software ImageJ (rsbinfonihgov</>ij</>indexhtml). For histology, kidney sections were fixed in 10% formalin and 2 μm-paraffin sections were stained with H&E, PAS and methenamine silver (Jones) for histological analysis.
Histological analysis of glomerular pathology was done by an investigator blinded to treatment group and included acute inflammatory features (endocapillary hypercellularity, mesangial hypercellularity, cellular necrosis, cellular crescents, and interstitial inflammation), and chronic features (global glomerulosclerosis (GS), focal segmental glomerulosclerosis (FSGS), and interstitial fibrosis or tubular atrophy (IF/TA)). The severity of each feature was graded as 0 (absent), 1 (lesions involving up to 25% of the component evaluated), 2 (lesions in 26-50% evaluated) or 3 (lesions in >50%) in each field of the microscope at 400× magnification. The weighted total score of the clinical features was based on this formula: [endocapillary hypercellularity+mesengial hypercellularity+(cellular necrosis*2)+(cellular crescents*2)+interstitial inflammation)/5]+(GS+FSGS+IFTA)/3, with maximum score 5.2. A minimum of 25 glomeruli, of at least 10 mice per group, were scored. Scores from each individual mouse were added and averaged to yield the glomerulonephritis score.

[4] = Preventive, 25 weeks after treatment
[5] = Therapeutic (PU^lo), 10 wks after initiation of therapy

COc1c(C)c2c(c(O)c1C/C=C(\C)CCC(=O)OCCN1CCOCC1)C(=O)OC2 [MMF, mycophenolate mofetil, reference compound]
Animals with proteinuria reduced to levels below 300 mg/dL ([1]; PU^hi arm, after 8 weeks of treatment, LAQ 25 mg/kg, MMF 100 mg/kg): approximately 25% | FSGS and IF/TA histology scores ([1]; PU^hi arm, compared to controls): significantly lower | Survival ([1]; treated after clinical nephritis / PU^hi, LAQ 25 mg/kg 3 times a week, MMF 100 mg/kg 5 times a week, vs water): not observed | Frequency of cells ± SEM: CD4+ [2, 4]: 19.4 ± 0.4 | Frequency of cells ± SEM: CD8+ [2, 4]: 8.8 ± 0.1 | Frequency of cells ± SEM: CD11b^+Ly6C^+Ly6G+ [2, 4]: 1.6 ± 0.2 | Frequency of cells ± SEM: CD11b^+Ly6C^+Ly6G− [2, 4]: 22.9 ± 0.8 | Frequency of cells ± SEM: CD11b^+MDSC−(Mφ) [2, 4]: 49.8 ± 0.7 | Frequency of cells ± SEM: CD11c^+CD11b+(DC) [2, 4]: 1.0 ± 0.1 | Frequency of cells ± SEM: CD11c^+CD11b− (DC) [2, 4]: 4.4 ± 0.3 | Frequency of cells ± SEM: CD19+ [2, 4]: 2.3 ± 0.2 | Frequency of cells ± SEM: CD4+ [2, 5]: 1.0 ± 0.1 | Frequency of cells ± SEM: CD8+ [2, 5]: 6.6 ± 0.2 | Frequency of cells ± SEM: CD11b^+Ly6C^+Ly6G+ [2, 5]: 1.9 ± 0.3 | Frequency of cells ± SEM: CD11b^+Ly6C^+Ly6G− [2, 5]: 22.4 ± 0.3 | Frequency of cells ± SEM: CD11b^+MDSC−(Mφ) [2, 5]: 45.7 ± 0.9 | Frequency of cells ± SEM: CD11c^+CD11b+(DC) [2, 5]: 0.6 ± 0.0 | Frequency of cells ± SEM: CD11c^+CD11b− (DC) [2, 5]: 1.3 ± 0.1 | Frequency of cells ± SEM: CD19+ [2, 5]: 7.2 ± 0.4 | Survival vs. controls ([3]; BWF1 females treated orally for 24 weeks before disease, LAQ 1 and 25 mg/kg, MMF 100 mg/kg, p=0.028): better | Survival, low dose treatment ([3]; LAQ 1 mg/kg 3 days a week, MMF 30 mg/kg 5 days a week, prior to anti-dsDNA and proteinuria, vs water): significantly better; also recorded: still alive at 45 weeks | Chronic scarring (GS, FSGS, IFTA) in kidney ([3]; higher doses, treated before proteinuria, vs water): less | Onset of proteinuria beyond 32 weeks up until about 42 weeks ([3]; low dose: LAQ 1 mg/kg 3 times a week, MMF 30 mg/kg): effective in delaying onset of proteinuria | Serum/plasma IgG anti-dsDNA antibody levels ([3]; preventive treatment, LAQ 1 or 25 mg/kg, MMF 100 mg/kg, vs water): suppressed; also recorded: lower anti-DNA levels | Prevention of proteinuria ([3]; preventive treatment, MMF 30 mg/kg, 18-week study period): did not | Prevention of proteinuria ([3]; preventive treatment, both LAQ doses (1, 25 mg/kg), MMF 100 mg/kg): prevented proteinuria and prevented the appearance of proteinuria and none | Kidney specimens (histology, glomerular IgG and C3 deposits) ([3]; preventive, LAQ 25 mg/kg, MMF 100 mg/kg, after more than 50% of controls developed high proteinuria): largely unremarkable | Mice with proteinuria at 32 wks. of age ([3]; treated before disease, LAQ 1 and 25 mg/kg, MMF 100 mg/kg, water 50%, p<0.0001): zero and none | Mean total histologic score (renal histology) ([3]; treated before disease, MMF 100 mg/kg, water 7.8, p<0.01): 0.9 | Glomerular deposition of Ig and C3 ([3]; treated prior to onset of clinical nephritis, vs water group p<0.001): in the normal range; also recorded: significantly decreased
